According to PubChem BioAssay (NCI):
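Five compound concentrations were applied to cells in 96-well plates for 48 hours; endpoints were derived by simple linear interpolation of the resulting dose-response curve. TGI marks complete inhibition of growth.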 Where a SMILES comes first, the peptide text is derived from it. The star is where a group is joined. Cbz = O=C(OCc1ccccc1)*

Key:
Test in all cases: DTP human tumour cell line panel, 48 h
786-0 renal = tested on: 786-0 renal
COLO 205 colon = tested on: COLO 205 colon
HCC-2998 colon = tested on: HCC-2998 colon
IGROV1 ovarian = tested on: IGROV1 ovarian
NCI-H522 lung = tested on: NCI-H522 lung
OVCAR-5 ovarian = tested on: OVCAR-5 ovarian
RPMI-8226 leukemia = tested on: RPMI-8226 leukemia
SF-268 CNS = tested on: SF-268 CNS
SF-295 CNS = tested on: SF-295 CNS
SN12C renal = tested on: SN12C renal

Row | SMILES | TGI (786-0 renal) [µM] | TGI (COLO 205 colon) [µM] | TGI (HCC-2998 colon) [µM] | TGI (IGROV1 ovarian) [µM] | TGI (NCI-H522 lung) [µM] | TGI (OVCAR-5 ovarian) [µM] | TGI (RPMI-8226 leukemia) [µM] | TGI (SF-268 CNS) [µM] | TGI (SF-295 CNS) [µM] | TGI (SN12C renal) [µM]
1 | O=Cc1[nH]c(=O)[nH]c(=O)c1C(=O)O | > 100 | > 100 | > 100 | > 100 | > 100 | > 100 | > 100 | > 100 | > 100 | > 100
2 | N#Cc1c(N)nc2n[nH]c(N)c2c1-c1ccc(Cl)cc1 | > 60.8 | > 100 | > 64.7 | 7.39 | 9.11 | > 100 | > 100 | > 100 | 42.7 | 51.6
3 | COC(=O)C1=C(C(=O)NNc2ccccc2)N(c2cccnc2Cl)C(c2ccccc2)=CC1c1ccccc1 (stereo not given) | > 100 | > 100 | > 100 | > 100 | > 100 | > 100 | 82.8 | > 100 | 56 | > 100
4 | CC1CCC(C(C)C)C(OC(=O)NCn2cc(-c3ccccc3)nn2)C1 (stereo not given) | > 100 | > 100 | > 100 | > 100 | > 100 | > 100 | > 100 | > 100 | > 100 | > 100
5 | CCCCCCc1cc2cc(C(=O)Nc3ccccc3)c(=N)oc2cc1O | > 35.8 | > 100 | 20.8 | > 100 | 6.02 | > 100 | > 100 | > 100 | > 100 | 6.97
6 | CN(C)CCCC12CCCCC1=Nc1ccccc12 (stereo not given) | > 100 | > 100 | > 100 | > 100 | > 100 | > 100 | > 100 | > 100 | > 100 | > 100
7 | CCOC(=O)CN1C(=O)c2ccc(NC(=O)C(=O)O)cc2S1(=O)=O | > 100 | > 100 | > 100 | > 100 | > 100 | > 100 | > 100 | > 100 | > 100 | > 100
8 | COC(=O)c1cc2ccc(N)nc2[nH]c1=O | > 100 | > 100 | > 100 | > 100 | > 100 | > 100 | > 100 | > 100 | > 100 | > 100
9 | CN1CCN(C(=S)N2CCN(C)CC2)CC1 | > 100 | 9.45 | > 100 | > 100 | > 45.6 | > 100 | > 76.7 | > 100 | > 100 | > 100
10 | O=C(O)CCC(NC(=O)OCc1ccccc1)C(=O)NC(Cc1cnc[nH]1)C(=O)O (stereo not drawn) (Cbz-Glu-His-OH; configuration not given here) | > 100 | > 100 | > 100 | > 100 | > 100 | > 100 | > 100 | > 100 | > 100 | > 100
11 | Cc1cc(S(=O)(=O)Nc2n[nH]c(N)n2)c(SCC(=O)O)cc1Cl | > 10 | > 10 | > 10 | > 10 | > 10 | > 10 | > 10 | > 10 | > 10 | > 10
12 | CSc1nc(Nc2cccc(C(F)(F)F)c2)c2c(N)nn(C)c2n1 | > 100 | > 100 | > 100 | > 100 | > 100 | > 100 | > 100 | > 100 | > 100 | > 100
13 | CC1OC(OC2C(O)COC(OC3C(C)OC(OC4C(OC(=O)[C@]56CCC(C)(C)C[C@@H]5C5=CCC7[C@@]8(C)C[C@H](O)[C@H](OC9OC(CO)C(O)C(O)C9O)[C@@](C)(CO)[C@@H]8CC[C@@]7(C)[C@]5(C)CC6)OCC(O)C4O)C(O)C3OC3OCC(O)(CO)C3O)C2O)C(O)C(O)C1O (stereo not given in full) | 27.8 | 6.37 | 14.7 | 31.1 | 35.7 | 24.3 | > 100 | 28.4 | 32.2 | 16.4
14 | O=C(/C=C/c1cc2ccccc2o1)N1CCN(c2ccccn2)CC1 | > 100 | > 100 | > 100 | > 100 | > 100 | > 100 | > 100 | > 100 | > 100 | > 100
15 | Cn1ccc(C(=O)NCCN(CCNC(=O)c2ccn(C)c(=O)c2O)CCNC(=O)c2cccc(=O)n2O)c(O)c1=O | > 100 | > 100 | > 100 | > 100 | > 100 | > 100 | > 100 | > 100 | > 100 | > 100
16 | O=[N+]([O-])c1ccc2c(c1)C1=C(CO2)Cc2ccccc2O1 | 39.9 | 30.6 | 35.3 | 55.4 | 54.5 | 54.7 | > 100 | 63.5 | > 100 | 45.2
